Measurements reported in patent publication US20260242390A1, “TOTAL SYNTHESES OF PORTIMINE A AND ANALOGUES THEREOF AS SMALL MOLECULE MODULATORS OF NMD3” (priority 2023, published 2026).
Entries after “also recorded” stand apart in the source; their conditions may differ.

Molecular target: T1, NMD3 (Homo sapiens, UniProt Q96D46)
T1 construct: endogenous in cells
T1 sequence (Q96D46 1-503): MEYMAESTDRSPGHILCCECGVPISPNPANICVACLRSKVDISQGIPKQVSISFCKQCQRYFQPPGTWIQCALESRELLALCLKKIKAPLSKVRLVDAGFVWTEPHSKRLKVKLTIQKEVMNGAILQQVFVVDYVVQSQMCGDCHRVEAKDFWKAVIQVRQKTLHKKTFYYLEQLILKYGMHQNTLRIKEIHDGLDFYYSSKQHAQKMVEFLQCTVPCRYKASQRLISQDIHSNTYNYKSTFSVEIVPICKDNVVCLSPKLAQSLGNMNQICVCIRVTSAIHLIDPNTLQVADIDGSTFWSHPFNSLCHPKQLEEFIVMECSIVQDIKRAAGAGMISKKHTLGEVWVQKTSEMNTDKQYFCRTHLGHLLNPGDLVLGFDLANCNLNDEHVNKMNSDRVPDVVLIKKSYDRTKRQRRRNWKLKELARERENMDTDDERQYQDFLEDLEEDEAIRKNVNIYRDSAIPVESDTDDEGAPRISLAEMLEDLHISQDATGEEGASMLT
Assay: Chemo-precipitation / photoaffinity labeling of NMD3
Type: binding
Conditions: for competition of PA-DA labeling of endogenous NMD3 / labeling of endogenous NMD3 by probe: Jurkat and HCC1806 cells; for competition of PA-DA labeling of endogenous NMD3: PA-DA 0.5 uM, competitor 5 uM; for labeling of endogenous NMD3 by probe: probe 0.5 uM, UV irradiated
Procedure: FIG. 4. Validation of NMD3 as target of Portimine A by Chemo-precipitation (ChP). Portimine A mouse pharmacokinetic properties and fast acting in vitro cell-based target engagement properties based on compound wash-out. (A) Pharmacokinetic studies of mouse intraperitoneal (i.p.) and oral (p.o.) administration for portimine (n=3). […] Impact of PA [0.3 or 1 mg/kg intraperitoneally] on MC38 tumor growth in WT mice (n=6). (C) Kaplan-Myer survival curve of WT MC38 tumor-bearing mice (n=6) after treatment with PA as described in (D). Mice were euthanized when tumor area exceeded 2000 mm^3. Statistical analysis was performed using ANOVA analysis followed by multiple comparisons test, * p≤0.05. Treatment condition: Jurkat (60 M per condition); PA-DA/ePA-DA concentration: 0.5 uM, PA or ePA: 5 uM; Incubate with probe with or without competitors (PA, ePA) for 30 min; UV irradiated for 20 min. (0.5 uM PA-DA add a no-UV condition); Standard pulldown & biotin-enrichment and western blot analysis (Elute condition: 2× sample buffer+500 uM biotin, boil for 20 mins); Primary antibody NMD3 (ProteinTech, 1:150), Actin (BioRad, 1:10000).
FIG. 5. […] (I, J) Confirmation of PA-DA engagement of NMD3 in Jurkat and HCC1806 cells. […] Treatment condition: Jurkat (5M per well). Portimine A concentration: 2 nM-1000 nM; In total treat cell for 12 hours.
• 1) Portimine A and its functional analogs show stereo-selective acute toxicity in cancer cells (FIG. 1). […] (B) Structure of portimine related analogs: phenyl-portimine A (Ph-PA, 36) and epi-portimine A (ePA, 38). Structure of fully functionalized portimine A-based epimeric probe pair: portimine A-diazirine-alkyne (PA-DA, 35-2) and epi-portimine A-diazirine-alkyne (ePA-DA, 35-1). (C) Cell viability analysis of portimine A and analogs. Jurkat cells were treated with increasing concentrations of portimine A and analogs for 24 hours. All presented data as mean of biological replicated experiments (n=3). […] Jurkat cells were treated with portimine A or analogs for 12 hours at 10 nM. […] Structurally related negative control ePA and PB are non-toxic in all cell types in the current concentrate range. PBMCs (25k per well), Jurkat (10k per well). […] Cell cycle analysis in Jurkat cells (FIG. 2). Jurkat cells were treated with 10 nM of indicated compounds for 24 hours, and propodium iodide was used to identify different stages of cells by flow cytometry. […] (A) PA and Ph-PA show less toxic to healthy PBMCs compared to Jurkat cells. […] (B) Immunoblot of caspase-3 in Jurkat and PBMCs with indicated conditions. […] (A) Pharmacokinetic studies of mouse intraperitoneal (i.p.) and oral (p.o.) administration for portimine (n=3). […] Impact of PA [0.3 or 1 mg/kg intraperitoneally] on MC38 tumor growth in WT mice (n=6). (C) Kaplan-Myer survival curve of WT MC38 tumor-bearing mice (n=6) after treatment with PA as described in (D). Mice were euthanized when tumor area exceeded 2000 mm^3. Statistical analysis was performed using ANOVA analysis followed by multiple comparisons test, * p≤0.05. Treatment condition: Jurkat (60 M per condition); PA-DA/ePA-DA concentration: 0.5 uM, PA or ePA: 5 uM; Incubate with probe with or without competitors (PA, ePA) for 30 min; UV irradiated for 20 min. (0.5 uM PA-DA add a no-UV condition), Standard pulldown & biotin-enrichment and western blot analysis (Elute condition: 2× sample buffer+500 uM biotin, boil for 20 mins); Primary antibody NMD3 (ProteinTech, 1:150), Actin (BioRad, 1:10000). […] Chemical proteomic profiling with PA-DA in Jurkat cells (A, B, C, G) and HCC1806 cells (D, E, F, H) show NMD3 is the primary target candidate of portimine A. Volcano plot in panels A and D show protein competition in cells treated with active photoaffinity probe PA-DA (500 nM) and DMSO or the active competitor portimine A (PA, […]), dotted lines indicate threshold of fold change <4, p-value>0.05. […] (I, J) Confirmation of PA-DA engagement of NMD3 in Jurkat and HCC1806 cells. […] Treatment condition: Jurkat (5M per well). […]

Compound | competition of PA-DA labeling of endogenous NMD3 | binding to NMD3 (target validation) (endogenous NMD3, Jurkat, pulldown and western blot) | nature of the interaction with NMD3 (no-UV control) | binding to recombinantly overexpressed NMD3 in cells | labeling of endogenous NMD3 by probe
C=CC1=C[C@@H]2[C@@H]3O[C@]4(CC[C@H](O4)C(C)C[C@@H](O)C3=O)CC(O)C3=NCC[C@@]32CC1 (stereo partly shown) [PA, portimine A] | blocked | selectively binds; also recorded: confirmed as a target | non-covalent | – | –
C#CCCC1(CCNC(=O)c2ccc(C3=C[C@@H]4[C@@H]5O[C@]6(CC[C@H](O6)C(C)C[C@@H](O)C5=O)CC(O)C5=NCC[C@@]54CC3)cc2)N=N1 (stereo partly shown) [PA-DA, portimine A-diazirine-alkyne] | – | – | – | not observed | UV-dependent labeling
C=CC1=C[C@@H]2[C@@H]3O[C@]4(CC[C@H](O4)C(C)C[C@@H](O)C3=O)C[C@@H](O)C3=NCC[C@@]32CC1 (stereo partly drawn) [ePA, epi-portimine A] | not | – | – | – | –
C#CCCC1(CCNC(=O)c2ccc(C3=C[C@@H]4[C@@H]5O[C@]6(CC[C@H](O6)C(C)C[C@@H](O)C5=O)C[C@@H](O)C5=NCC[C@@]54CC3)cc2)N=N1 (stereo partly drawn) [ePA-DA, epi-portimine A-diazirine-alkyne] | – | – | – | – | not substantially labeled
